Each block holds one molecule with its values, some of them ahead of it.
Columns and labels:
activated human MoDCs = assay: Human MoDC IL-23 secretion assay; format: cell-based; conditions: PGE1-OH (10 nM); LPS/R-848 activated human MoDCs, 24 h; read-out: IC50 (Ave. of two experiments), inhibiting PGE1-OH enhanced IL-23 production
Protocol: In vitro human monocytes derived DC assay. CD14^+ cells were purified from human PBMCs using Miltenyi CD14 microbeads, and differentiated with human GM-CSF (500 U/ml)+human IL-4 (500 U/ml) in complete RPMI medium containing 10% charcoal-stripped FBS for […]. The unattached imDCs were stimulated with LPS (10 ng/ml)+R-848 (2.5 μg/ml) with or without addition of EP4 agonist/antagonist or anti-PGE2 Ab at the concentrations indicated for 24 h. IL-23 in culture supernatants were measured by ELISA (eBioscience).
Human CD14^+ monocytes were differentiated into imDCs with GM-CSF plus IL-4 for 7 days and re-stimulated with LPS/R-848 in the presence or absence of exogenous PGE1-OH (1-100 nM) and with and without ER-819762 (FIG. 13) or ER-819924 or anti-PGE2 Ab (FIG. 14) for 24 h. IL-23 secretion in culture supernatants was measured by ELISA. […] IC50 values of representative compounds in human MoDC IL-23 secretion assay.

Naive CD4 T cells = assay: Mouse Th1 differentiation assay; format: cell-based; conditions: for effect on Th1 differentiation: added during Th1 differentiation, 3 days
Protocol: In vitro T cell assays. Naive CD4^+ T cells were purified from spleens of either BALB/c or D011.10 mice by Robosep as described by the manufacture. For BALB/c mice, 1×10^5 of CD4^+ T cells were cultured for 3-6 days in a 96-well plate in 100 μl of complete RPMI medium (Cellgro) containing either 10% of regular fetal bovine serum (Hyclone) or charcoal stripped FBS (Hyclone) (when exogenous PGE2 or EP4 agonists were added to the culture) under either neutral condition (1 μg/ml of plate-bound anti-CD3+1 μg/ml of soluble anti-CD28+10 ng/ml of mouse IL-2) or under Th1 promoting condition (neutral+5 ng/ml of mouse IL-12+10 μg/ml of anti-IL-4) or under Th2 differentiation condition (neutral+10 ng/ml of mouse IL-4+10 μg/ml of […]). IFNγ or IL-4 in culture supernatants were detected by ELISA. Cell pellets were used to measure cell proliferation with either Alamar blue or CellTiter-Glo reagents according to the instructions of the manufacture. For D011.10 mice, mitomycin C treated splenocytes from BALB/c mice were used as antigen presenting cells and co-cultured with naive CD4^+ T cells in 5 to 1 ratio (5×10^5 of mitomycin C treated splenocytes in 100 μl medium+1×10^5 CD^4 T cells in 100 μl medium) and stimulated with OVA peptide (0.3 ng/ml) under either neutral, Th1 or Th2 promoting conditions as described above. EP4 agonists, antagonists or anti-PGE2 Ab were added during Th cell differentiation.
To investigate whether EP4 activation plays a role in Th1 differentiation, the effect of PGE2 or EP4 agonist and anti-PGE2 antibody was examined in a mouse Th1 differentiation assay. Naive CD4 T cells were differentiated with Th1 promoting agents for 3 days. Th1 cytokine IFNγ in culture supernatants was measured by ELISA. Cell proliferation was measured by Alamar blue assay. PGE2 or EP4 agonist PGE1-OH was added during Th1 differentiation.

EP4 = target: T1, EP4 (Homo sapiens, UniProt P35408); assay: PGE2 induced CRE-PLAP reporter assay in SE302 cells; format: cell-based; conditions: tested at 0.3 nM to 10 μM
T1 construct: SE302 cells that express endogenous EP4; endogenous in cells; host or cells: SE302 cells
T1 sequence (P35408 whole entry): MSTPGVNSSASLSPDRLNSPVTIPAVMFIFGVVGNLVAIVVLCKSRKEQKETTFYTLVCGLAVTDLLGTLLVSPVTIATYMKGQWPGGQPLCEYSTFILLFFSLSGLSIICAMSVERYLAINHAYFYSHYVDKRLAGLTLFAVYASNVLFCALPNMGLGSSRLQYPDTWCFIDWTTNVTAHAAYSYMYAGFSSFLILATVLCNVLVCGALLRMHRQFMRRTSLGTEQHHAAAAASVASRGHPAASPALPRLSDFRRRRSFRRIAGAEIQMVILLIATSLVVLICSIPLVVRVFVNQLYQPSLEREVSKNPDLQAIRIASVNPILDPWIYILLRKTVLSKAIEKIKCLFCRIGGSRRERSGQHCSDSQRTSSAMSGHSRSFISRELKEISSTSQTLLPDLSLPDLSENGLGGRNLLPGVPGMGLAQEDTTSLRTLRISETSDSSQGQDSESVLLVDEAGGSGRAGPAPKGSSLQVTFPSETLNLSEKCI
Protocol: CRE-PLAP reporter assay. SE302 cells that express endogenous EP4 were stimulated with PGE2 in the presence or absence of ER-819762 for overnight, and PLAP activity was measured.

[1] = tested on: activated mouse CD4+ T cells; assay: IL-17 production in activated mouse CD4+ T cells; format: cell-based; conditions: anti-CD3/anti-CD28 stimulated CD4+ T cells
Protocol: To study the effect of EP4 agonist/antagonist on IL-17 production, total CD4^+ T cells from C57BL/6 mice were activated with plate-bound anti-CD3 (2 μg/ml) plus soluble anti-CD 28 (2 μg/ml) in the presence or absence of IL-23 (10 ng/ml) or EP4 agonist/antagonists at indicated concentrations for 3-5 days. Culture supernatants were analyzed by IL-17 ELISA, and cell pellets were used to measure cell proliferation with CellTite-Glo reagents.
To investigate whether EP4 also plays a role in a Th17 response, the effect of EP4 activation by PGE2 or EP4 agonist on IL-17 production in activated mouse CD4^+ T cells was examined. Total CD4^+ T cells were stimulated with anti-CD3/anti-CD28 with and without IL-23 and in the presence or absence of PGE2 or EP4 agonist PGE1-OH (0.1 nM to 1000 nM) for 3-5 days. IL-17 in culture supernatants was measured by ELISA and cell proliferation was measured by CellTiter-glo.

human T-bet = human T-bet (Homo sapiens, UniProt Q9UL17); assay: HEKT-bet-luc assay (normalized); format: cell-based; conditions: reference compound used for normalization; read-out: established potency of the reference compound (IC50)
human T-bet, sequence (Q9UL17 whole entry): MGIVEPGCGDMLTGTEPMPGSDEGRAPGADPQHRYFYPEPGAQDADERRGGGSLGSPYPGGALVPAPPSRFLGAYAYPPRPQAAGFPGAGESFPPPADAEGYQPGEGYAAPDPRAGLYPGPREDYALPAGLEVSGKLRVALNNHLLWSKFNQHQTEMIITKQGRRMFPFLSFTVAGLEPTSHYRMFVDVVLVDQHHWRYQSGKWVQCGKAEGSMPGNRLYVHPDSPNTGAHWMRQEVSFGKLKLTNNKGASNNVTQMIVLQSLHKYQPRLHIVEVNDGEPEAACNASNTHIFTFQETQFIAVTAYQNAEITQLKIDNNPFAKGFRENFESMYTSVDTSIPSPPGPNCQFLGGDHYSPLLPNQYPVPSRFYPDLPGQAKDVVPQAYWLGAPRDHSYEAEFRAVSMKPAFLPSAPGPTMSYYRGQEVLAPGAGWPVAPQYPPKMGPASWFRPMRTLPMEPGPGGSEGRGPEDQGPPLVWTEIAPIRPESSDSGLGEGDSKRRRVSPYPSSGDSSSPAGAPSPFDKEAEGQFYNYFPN
Protocol: HEKT-bet-luc assay: This assay measures a T-bet dependent reporter (luciferase) activity in engineered HEK cells that express a human T-bet and a T-box responsive element driving luciferase reporter. HEKT-bet cells were plated at 2×10^4/well in 96-well plate and compound was added into cell culture for 24 hours. Luciferase activity was measured by adding 50 μl of Steady-Glo reagent (Promega) and samples were read in Victor V reader (PerkinElmer). The activity of compound was determined by comparing compound treated samples to non-compound treated vehicle controls. The IC50 values were calculated utilizing a maximum value corresponding to the amount of luciferase in the absence of a test compound and a minimum value corresponding to a test compound value obtained at maximum inhibition.
Determination of Normalized HEKT-bet IC50 values: Compounds were assayed in microtiter plates. […] The un-normalized IC50 value for a particular compound was divided by the IC50 value determined for the reference compound in the same microtiter plate to provide a relative potency value. […]
Exemplary compounds of the present invention were assayed according to the methods set forth above in the HEKT-bet-luc assay described above. Table 2 below set forth exemplary compounds of the present invention having an IC50 of up to the indicated amount (μM) as determined by the normalized HEKT-bet-luc assay described above.

CAIA mouse = assay: Suppression of arthritis development in CAIA; format: in vivo; conditions: once daily PO day 0 to day 7
Protocol: Suppression of arthritis development in CAIA. BALB/c mice were injected i.v. with 1 mg of anti-type II collagen antibody at day 0, and 3 days later 25 μg of LPS was injected i.p. with active compound and methotrexate (MTX) was given once daily PO from day 0 to day 7. Arthritis score and body weight was monitored over the course of study.

IC50 (activated human MoDCs): 40 to 200 nM
inhibition of PGE2 induced CRE-PLAP reporter activity (EP4): potent inhibitory activities
SMILES: CCN1C(=O)N2Cc3cc(OC)cc(OC)c3[C@@H](C)C=C2C12CCN(Cc1cc(C)cc(C)c1)CC2 [ER-819762]
added activity to anti-PGE2 Ab in Th1 differentiation (Naive CD4 T cells; combination with anti-PGE2 Ab): no added activity
effect on PGE2/PGE1-OH enhanced IL-17 production [1]: suppresses

SMILES: CCN1C(=O)N2Cc3cc(OC)cc(OC)c3[C@@H](C)C=C2C12CCN(Cc1cccn1C)CC2 [ER-819924]
IC50 (activated human MoDCs): < 200 nM
inhibition of PGE2 induced CRE-PLAP reporter activity (EP4): potent inhibitory activities

SMILES: CCN1C(=O)N2Cc3cc(OC)cc(OC)c3[C@@H](C)C=C2C12CCN(Cc1cc(C)cc(C)c1)CC2 [ER-819762-01]
effect on PGE2/PGE1-OH enhanced IL-17 production [1]: suppressed the activity

IC50 (activated human MoDCs): 185 nM
SMILES: CCN1C(=O)N2Cc3cc(OC)cc(OC)c3[C@@H](C)C=C2C12CCN(Cc1c[nH]nc1C)CC2 [ER-819826-01]

SMILES: CCCCC[C@H](O)/C=C/[C@H]1[C@H](O)CC(=O)[C@@H]1C/C=C\CCCC(=O)O [PGE2, prostaglandin E2]
effect on Th1 differentiation (Naive CD4 T cells): enhanced Th1 differentiation

SMILES: CCCCC[C@H](O)/C=C/[C@H]1[C@H](O)CC(=O)[C@@H]1CCCCCCCO [PGE1-OH, PGE1-alcohol]
effect on Th1 differentiation (Naive CD4 T cells): enhanced Th1 differentiation

IC50 (activated human MoDCs): 57 nM
SMILES: CCN1C(=O)N2Cc3cc(OC)cc(OC)c3[C@@H](C)C=C2C12CCN(Cc1nc(C)oc1C)CC2 [ER-811283-01]

IC50 (human T-bet): 35 nM
SMILES: COCCN1C(=O)N2Cc3cc(OC)cc(OC)c3C(C)(C)C=C2C12CCN(Cc1cc(OC)cc(OC)c1)CC2 [ER-819544]

SMILES: CN(Cc1cnc2nc(N)nc(N)c2n1)c1ccc(C(=O)N[C@@H](CCC(=O)O)C(=O)O)cc1 [methotrexate]
activity in CAIA model (CAIA mouse): not particularly active
